# From EP0382411B1, “Delivery of cytotoxic agents” (ELI LILLY AND COMPANY, priority 1989, dated 1990)
# “And” between values parts separate entries of the source, which are not always exact repeats. Equal values may be shown once.
# Assays:
# [1] = molecular target: P-99 E. cloacae beta-lactamase Enzyme (Enterobacter cloacae, UniProt P05364); test: Release of substituents from the 3'-methylene group of cephalosporins on treatment with beta-lactamase; type: biochemical
# Experimental: (If the detection method is not instantaneous, the enzyme can be stopped at the desired time by addition of an inhibitor such as cloxacillin (Sigma, St. Louis, Mo.) at its effective concentration: 5 µM for cloxacillin.)
# For instance, a model system for the present method employs the expulsion of aminoethanethiol from 7-β-(2-(thien-2-yl)acetamido)-3-((2-aminoethyl-1-sulfide)methylene)-3-cephem-4-carboxylic acid. A typical enzyme assay was performed (following the 264 nm absorbance), but in 50 mM Tris, 100 mM NaCl buffer, pH 8.0. […] Using molar extinction coefficients of 8,540 for the 264 nm absorbance, and 13,600 for the 412 nm absorbance, the rates of the two reactions can be compared (reaction of thiol with DTNB is instantaneous under these conditions).
# A stock solution of P-99 E. cloacae beta-lactamase Enzyme was prepared. To the stock solution of the cephalosporin Substrate (90 µl) was added stock beta-lactamase solution (10 µl). The reaction was monitored by HPLC (on a Waters Associates C₁₈ µ Bondapak column) eluted with 25% acetonitrile/ 1% acetic acid in water (monitered at 254 nm absorbance). The retention time for 5-fluorouracil was 1.9 minutes and was 5.3 minutes for the cephalosporin - (5-fluorouracil) compound. Approximately 30 seconds after mixing, a 5 µl aliqout of the reaction mixture was injected into the HPLC. […] Thirty-six minutes after mixing the stock solutions the amount of compound eluting at […] was further diminished, and the amount of compound eluting at 1.9 minutes was correspondingly larger by intergration of the peak areas.
# [2] = tested on: male Fischer 344 rats; test: Rat hematology protocol (white blood cell determination); type: in vivo; conditions: for WBC's, Day 0, Mean: group mean of 5 rats; for WBC's, Day 0, Mean / WBC's, Day 0: pre-bleed before i.v. injection of 1 mg/kg; for WBC's, Day 3, Mean / WBC's, Day 7, Mean: group mean; for WBC's, Day 7, Mean / WBC's, Day 7: day 7 after 1 mg/kg i.v.; for WBC's, Day 3 / WBC's, Day 7 / WBC's, Day 0: individual rat; for WBC's, Day 0: 1 mg/kg
# Experimental: The purpose of the following procedure was to compare the toxicity of the Substrate-Cytotoxic Agent to the toxicity of Cytotoxic Agent alone. • 1. Day 0: 25 male Fischer 344 rats (∼100g) are pre-bled (eyebleed) and injected i.v. as follows: • Group A: 5 rats + vehicle control: 0.5 ml 10 mM HEPES, 150 NaCl, pH 7.1 buffer containing 10% ethanol. • Group B: 5 rats + 1 mg/kg 4 desacetylvinblastine-3-carboxhydrazide (DAVLBHYD). Dissolve 1 mg DAVLBHYD in 0.5 ml absolute ethanol and add 4.5 ml HEPES-NaCl buffer. Inject each rat with 0.5 ml. • Group C: 5 rats + 1 mg/kg ("LY262758") (7-β-2-(phenoxyacetamido)-3-(((desacetylvinblastine)aminocarboxy)methylene)-3-cephem-1-β-sulfoxide-4-carboxybiacid, trifluoroacetic acid salt) (vinca content), (58% vinca). Dissolve 2 mg as above and inject 0.5 ml. • Group D: 5 rats + 1mg/kg ("LY266494"), (7-β-(2-(thien-2-yl)acetamido-3-(((desacetylvinblastinehydrazido)carbonyloxy)methylene)-3-cephem-4-carboxylic acid, hydrochloride salt (55.8% vinca). Dissolve 2 mg and inject 0.5 ml. • Group E: 5 rats + 1 mg/kg ("LY266070") 7-β-(2-(thien-2-yl)acetamido-3-(((desacetylvinblastinehydrazido)carbonyloxy)methylene)-3-cephem-1-β-sulfoxide-4-carboxylic acid, trifluoroacetic acid salt. Dissovle 2 mg and inject 0.5 ml. All animals were indentifed by ear punch and were bled on days 3 and 7 post treatment for white blood cell (WBC) determination. The raw data are on the following page. […] The WBC values of the groups were indistinguishable at day 7 (and lower than the pre-bleed which may have been due to using a different instrument for the WBC determination).
# [3] = tested on: CEA - bearing LS174T tumor cells; test: In vitro cytotoxicity determination (3H-leucine uptake); type: cell-based
# Experimental: Target cells (antigen positive or antigen negative) are resuspended in 75% leucine deficient EBSS-MEM (GIBCO, Grand Island, NY) + 10% dialyzed fetal bovine serum (FBS) + gentamicin (GIBCO) at 200,000 cells/ml. Aliquots of this cell suspension, 0.2 ml, are seeded into 96 well plates and incubated overnight at 37°C, 5% CO₂. To the supernatants is added the antibody-enzyme conjugate to a final concentration of 25 µg/ml (unconjugated enzyme, unconjugated antibody, no treatment). The supernatants are removed after 1 hr incubation, and the cells rinsed once with media. The media is then replaced with the same media, but containing a Substrate-Cytotoxic Agent at concentrations between 0.001 and 10 µg/ml. The cells are incubated with the Substrate-Cytotoxic Agent compound for a period of time ranging from 3 to 48 h at 37°C, 5% CO₂. Media containing 4 µCi of ³H-leucine are added per well. The cells are incubated 24 hr with the labeled leucine, then harvested. Uptake of labeled leucine is determined by liquid scintillation counting. (All Samples are run in triplicate.) Results are reported as the Substrate-Cytotoxic Agent concentration at which leucine incorporation is reduced to 50% of the control value (ID₅₀).
# The rest of the experiment was carried using the above standard procedure.
# [4] = tested on: white blood cell (WBC); test: Rat hematology protocol (white blood cell determination); type: in vivo, male Fischer 344 rats; conditions: day 3 post treatment, 1 mg/kg i.v., compared to all other groups
# Experimental: The purpose of the following procedure was to compare the toxicity of the Substrate-Cytotoxic Agent to the toxicity of Cytotoxic Agent alone. • 1. Day 0: 25 male Fischer 344 rats (∼100g) are pre-bled (eyebleed) and injected i.v. as follows: • Group A: 5 rats + vehicle control: 0.5 ml 10 mM HEPES, 150 NaCl, pH 7.1 buffer containing 10% ethanol. • Group B: 5 rats + 1 mg/kg 4 desacetylvinblastine-3-carboxhydrazide (DAVLBHYD). Dissolve 1 mg DAVLBHYD in 0.5 ml absolute ethanol and add 4.5 ml HEPES-NaCl buffer. Inject each rat with 0.5 ml. • Group C: 5 rats + 1 mg/kg ("LY262758") (7-β-2-(phenoxyacetamido)-3-(((desacetylvinblastine)aminocarboxy)methylene)-3-cephem-1-β-sulfoxide-4-carboxybiacid, trifluoroacetic acid salt) (vinca content), (58% vinca). Dissolve 2 mg as above and inject 0.5 ml. • Group D: 5 rats + 1mg/kg ("LY266494"), (7-β-(2-(thien-2-yl)acetamido-3-(((desacetylvinblastinehydrazido)carbonyloxy)methylene)-3-cephem-4-carboxylic acid, hydrochloride salt (55.8% vinca). Dissolve 2 mg and inject 0.5 ml. • Group E: 5 rats + 1 mg/kg ("LY266070") 7-β-(2-(thien-2-yl)acetamido-3-(((desacetylvinblastinehydrazido)carbonyloxy)methylene)-3-cephem-1-β-sulfoxide-4-carboxylic acid, trifluoroacetic acid salt. Dissovle 2 mg and inject 0.5 ml. All animals were indentifed by ear punch and were bled on days 3 and 7 post treatment for white blood cell (WBC) determination. […]
# [5] = day 3 after 1 mg/kg i.v., trifluoroacetic acid salt
# [6] = substance alone, no conjugate, treatment time 6 Hours
# [7] = substance alone, no conjugate, treatment time 48 Hours
# P-99 E. cloacae beta-lactamase Enzyme, sequence (P05364 21-381): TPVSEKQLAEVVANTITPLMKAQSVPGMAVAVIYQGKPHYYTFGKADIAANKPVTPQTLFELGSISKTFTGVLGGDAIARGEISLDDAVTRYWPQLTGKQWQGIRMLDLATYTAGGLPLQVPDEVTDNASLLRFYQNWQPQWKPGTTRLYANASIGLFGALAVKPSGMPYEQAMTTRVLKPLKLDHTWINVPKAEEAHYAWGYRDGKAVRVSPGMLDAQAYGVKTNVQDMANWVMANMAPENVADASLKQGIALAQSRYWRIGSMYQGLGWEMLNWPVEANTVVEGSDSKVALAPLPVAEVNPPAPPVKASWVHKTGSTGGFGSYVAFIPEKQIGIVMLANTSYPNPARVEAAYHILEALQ
molecule,measurement,setting,value
"NCCSCC1=C(C(=O)O)N2C(=O)[C@@H](NC(=O)Cc3cccs3)[C@H]2SC1 [7-β-(2-(thien-2-yl)acetamido)-3-((2-aminoethyl-1-sulfide)methylene)-3-cephem-4-carboxylic acid, reference compound]",release of thiol,"[1]; 50 mM Tris, 100 mM NaCl, pH 8.0, DTNB, absorbance at 412 nm vs 264 nm","thiol is released as a result of beta-lactamase catalyzed cleavage of the cephalosporin, but that the release rate is slower than the catalytic rate"
CCC1(O)CC2CN(CCc3c([nH]c4ccccc34)C(C(=O)OC)(c3cc4c(cc3OC)N(C)C3C(O)(C(=O)NNC(=O)OCC5=C(C(=O)O)N6C(=O)C(NC(=O)Cc7cccs7)C6SC5)C(O)C5(CC)C=CCN6CCC43C65)C2)C1.Cl (stereo not shown) [LY266494],"WBC's, Day 0, Mean",[2],15.6 x 1000
same,"WBC's, Day 3, Mean",[2]; day 3 after 1 mg/kg i.v.,15.0 x 1000
same,"WBC's, Day 7, Mean",[2],12.0 x 1000
same,"WBC's, Day 3","[2]; day 3 after 1 mg/kg i.v., hydrochloride salt",19.2 x 1000 and 16.2 x 1000 and 14.3 x 1000 and 13.3 x 1000 and 12.1 x 1000
same,"WBC's, Day 7",[2]; hydrochloride salt,8.3 x 1000 and 6.8 x 1000 and 11.4 x 1000 and 13.2 x 1000 and 20.1 x 1000
same,"WBC's, Day 0",[2]; hydrochloride salt,15.6 x 1000 and 16.5 x 1000 and 14.3 x 1000 and 16.0 x 1000
"7-β-2-(phenoxyacetamido)-3-(((desacetylvinblastine)aminocarboxy)methylene)-3-cephem-1-β-sulfoxide-4-carboxybiacid, trifluoroacetic acid salt [LY262758]","WBC's, Day 0, Mean",[2],13.4 x 1000
same,"WBC's, Day 3, Mean",[2]; day 3 after 1 mg/kg i.v.,14.8 x 1000
same,"WBC's, Day 7, Mean",[2],11.2 x 1000
same,"WBC's, Day 3",[2]; [5],13.3 x 1000 and 14.6 x 1000 and 15.0 x 1000 and 16.3 x 1000 and 14.7 x 1000
same,"WBC's, Day 7",[2]; trifluoroacetic acid salt,14.0 x 1000 and 13.0 x 1000 and 12.5 x 1000 and 9.0 x 1000 and 7.7 x 1000
same,"WBC's, Day 0",[2]; trifluoroacetic acid salt,13.3 x 1000 and 14.3 x 1000 and 9.4 x 1000 and 10.2 x 1000 and 19.7 x 1000
7-β-(2-(thien-2-yl)acetamido)-3-((((1-(desacetylvinblastine)amino)-2-ethylsulfide)methylene)-3-cephem-4-carboxylic acid [COMPOUND] [listing 1 of 2 here],ID50,"[3]; cells first treated with B-L-CEM231 conjugate 25 µg/ml for 1 hour, COMPOUND treatment time 6 Hours",0.265 µg/mL
same,ID50,"[3]; cells first treated with B-L-CEM231 conjugate 25 µg/ml for 1 hour, COMPOUND treatment time 48 Hours",<0.001 µg/mL
same,ID50,[3]; [6],.154 µg/mL
same,ID50,[3]; [7],<0.001 µg/mL
"CC[C@]1(O)C[C@@H]2CN(CCc3c([nH]c4ccccc34)[C@@](C(=O)OC)(c3cc4c(cc3OC)N(C)[C@H]3[C@@](O)(C(=O)NN)[C@H](O)[C@]5(CC)C=CCN6CC[C@]43[C@@H]65)C2)C1 [DAVLBHYD, 4 desacetylvinblastine-3-carboxhydrazide]",white blood cell (WBC) determination,[4],significant WBC suppression
"CC[C@]1(O)C[C@@H]2CN(CCc3c([nH]c4ccccc34)[C@@](C(=O)OC)(c3cc4c(cc3OC)N(C)[C@H]3[C@@](O)(C(=O)NN)[C@H](O)[C@]5(CC)C=CCN6CC[C@]43[C@@H]65)C2)C1 [DAVLB-Hyd, 4 desacetylvinblastine-3-carboxhydrazide, reference compound]",WBC suppression,"[2]; day 3 after 1 mg/kg i.v., compared to all other groups",significant WBC suppression
same,"WBC's, Day 0, Mean",[2],13.8 x 1000
same,"WBC's, Day 3, Mean",[2]; day 3 after 1 mg/kg i.v.,7.4 x 1000
same,"WBC's, Day 7, Mean",[2],9.2 x 1000
same,"WBC's, Day 3",[2]; day 3 after 1 mg/kg i.v.,4.4 x 1000 and 9.0 x 1000 and 5.4 x 1000 and 10.6 x 1000
same,"WBC's, Day 7",[2],5.0 x 1000 and 2.8 x 1000 and 19.8 x 1000
same,"WBC's, Day 0",[2],17.4 x 1000 and 10.9 x 1000 and 10.2 x 1000 and 12.7 x 1000 and 17.6 x 1000
CC[C@]1(O)C[C@H]2CN(CCc3c([nH]c4ccccc34)[C@@](C(=O)OC)(c3cc4c(cc3OC)N(C)[C@H]3[C@@](O)(C(=O)NNC(=O)OCC5=C(C(=O)O)N6C(=O)[C@@H](NC(=O)Cc7cccs7)[C@H]6[S+]([O-])C5)[C@H](O)[C@]5(CC)C=CCN6CC[C@]43[C@@H]65)C2)C1.O=C(O)C(F)(F)F (stereo partly shown) [LY266070],"WBC's, Day 0, Mean",[2],13.0 x 1000
same,"WBC's, Day 3, Mean",[2]; day 3 after 1 mg/kg i.v.,13.9 x 1000
same,"WBC's, Day 7, Mean",[2],9.6 x 1000
same,"WBC's, Day 3",[2]; [5],15.9 x 1000 and 12.8 x 1000 and 15.1 x 1000 and 14.5 x 1000 and 11.3 x 1000
same,"WBC's, Day 7",[2]; trifluoroacetic acid salt,7.0 x 1000 and 14.5 x 1000 and 9.6 x 1000 (2×) and 7.1 x 1000
same,"WBC's, Day 0",[2]; trifluoroacetic acid salt,14.1 x 1000 and 15.0 x 1000 and 9.9 x 1000 (2×) and 16.2 x 1000
7-β-(2-(thien-2-yl)acetamido)-3-((((1-(desacetylvinblastine)amino)-2-ethylsulfide)methylene)-3-cephem-4-carboxylic acid [COMPOUND] [listing 2 of 2 here],toxicity to the tumor cells,[3]; LS174T cells first treated with B-L-CEM231 conjugate at 25 µg/ml for 1 hour,dramatically increased
same,toxicity to the tumor cells,"[3]; LS174T cells untreated with conjugate, compared with the Cytotoxic Agent from which it is derived",much less toxic to the tumor cells than the Cytotoxic Agent from which it is derived
"O=C(Cc1cccs1)N[C@@H]1C(=O)N2C(C(=O)O)=C(Cn3cc(F)c(=O)[nH]c3=O)CS[C@H]12 [ceph-5-FU, 7-β-(2-(thien-2-yl)acetamido)-3-((N-1(5-fluorouracil)-yl)methylene)-3-cephem-4-carboxylic acid]",expulsion of 5-fluorouracil (HPLC trace),[1]; approximately 30 seconds after mixing with beta-lactamase,the cephalosporin had been consumed
same,expulsion of 5-fluorouracil (HPLC trace),"[1]; twenty-one minutes after mixing, 5-fluorouracil elutes at 1.9 minutes",a large amount of compound eluting at 1.9 minutes was observed
"CCC1(O)CC2CN(CCc3c([nH]c4ccccc34)C(C(=O)OC)(c3cc4c(cc3OC)N(C)C3C(O)(C(=O)NCCS)C(O)C5(CC)C=CCN6CCC43C65)C2)C1 (stereo not shown) [Desacetylvinblastine aminoethanethiol, reference compound]",ID50,[3]; [6],0.26 µg/mL
same,ID50,[3]; [7],<0.001 µg/mL
